pIC50: −log10 of the molar value.
Key:
[1] = tested on: KRAS G12D mutant pancreatic cancer cell line AsPC-1; assay: Cell viability assay using KRAS G12D mutant cells (AsPC-1, 3D culture, celltiter-glo 3D); type: cell-based; details: Homo sapiens, ASPC1, 5th day after compound treatment
Outline: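 AsPC-1 cells in 3D culture, 1000 cells/well, treated next day with 1/5 serial dilutions from 10 μM or 50 μM, 1:1 v/v. Viability read by CellTiter-Glo 3D on day 5, normalized to DMSO (100%) and untreated backgrounds; IC50 from four-parameter sigmoidal fit.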

[2] = target: T1, GppNHp-KRAS G12D mutant protein (Homo sapiens, UniProt P01116, G12D); assay: Differential scanning fluorimetry (DSF) binding affinity to GppNHp-KRAS G12D mutant protein; details: DSF thermal shift, 10 μM compound, 4 μg KRAS protein, 50 mM HEPES (pH 7.5)
T1 construct: purchased Daegu Gyeongbuk Medical Innovation Foundation (DGMIF), made to order
Outline: (§1)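 Each sample held 4 μg recombinant KRAS G12D (GDP- or GppNHp-bound) and 10 μM compound, incubated 30 min at room temperature before adding 2× SYPRO Orange. The GDP form was run in kit buffer, the GppNHp form in 50 mM HEPES pH 7.5. Melt was 25–99 °C at 0.05 °C/s (580/623 nm), reported as ΔTm versus no compound.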

[3] = target: T2, GDP-KRAS G12D mutant protein (Homo sapiens, UniProt P01116, G12D); assay: Differential scanning fluorimetry (DSF) binding affinity to GDP-KRAS G12D mutant protein; details: DSF thermal shift, 10 μM compound, 4 μg KRAS protein
T2 construct: purchased Daegu Gyeongbuk Medical Innovation Foundation (DGMIF), made to order
Outline: as §1

[4] = tested on: ERK phosphorylation (pERK) induced by KRAS G12D mutation; assay: Inhibitory activity against ERK phosphorylation (pERK) induced by KRAS G12D mutation, immunofluorescence assay in AsPC-1 cells; type: cell-based; details: Homo sapiens, ASPC1, 3 h drug treatment, pERK (Thr202/Tyr204) signal normalized to DAPI
Outline: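 AsPC-1 cells attached 16 h, then treated 3 h with 3-fold dilutions from 10 μM top. Fixed, permeabilized, immunostained for pERK (Thr202/Tyr204) with Alexa 488 secondary; high-content imaging, signal normalized to DAPI and to DMSO, IC50 from four-parameter fit.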

SMILES	pIC50 [1]	GppNHp-KRAS G12D (ΔTmD, ° C.) [2]	GDP-KRAS G12D (ΔTmD, ° C.) [3]	pIC50 [4]
C#Cc1c(F)ccc2cc(O)cc(-c3cc4nc(OC[C@@]56CCCN5C[C@H](F)C6)nc(N5C[C@H]6CC[C@@H](C5)N6)c4n4ccnc34)c12 [Example 2, 4-(1-((1 R,5S)-3,8-diazabicyclo[3.2.1]octan-3-yl)-3-(((2R,7aS)-2-fluorotetrahydro-1H-pyrrolizin-7a(5H)-yl)methoxy)imidazo[1′,2′:1,6]pyrido[3,2-d]pyrimidin-6-yl)-5-ethynyl-6-fluoronaphthalen-2-ol]	6.65	5.61 °C	9.91 °C	6.77
C#Cc1c(F)ccc2cc(O)cc(-c3c(F)c4nc(OCC5(CN6CCC7(CC6)CC7(F)F)CC5)nc(N5C[C@H]6CC[C@@H](C5)N6)c4c4cc(C)oc34)c12 [Example 59, 4-(1-((1R,5S)-3,8-diazabicyclo[3.2.1]octan-3-yl)-3-((1-((1,1-difluoro-6-azaspiro[2.5]octan-6-yl)methyl)cyclopropyl)methoxy)-5-fluoro-8-methylfuro[3,2-n]quinazolin-6-yl)-5-ethynyl-6-fluoronaphthalen-2-ol]	7.16	6.06 °C	12.88 °C	7.27
C#Cc1c(F)ccc2cc(O)cc(-c3c(F)c4nc(OC[C@@]56CCCN5C[C@H](F)C6)nc(N5CC6CCC5CN6)c4c4cn(C)nc34)c12 (stereo partly drawn) [Example 88, 4-(9-(2,5-diazabicyclo[2.2.2]octan-2-yl)-5-fluoro-7-(((2R,7aS)-2-fluorotetrahydro-1H-pyrrolizin-7a(5H)-yl)methoxy)-2-methyl-2H-pyrazolo[4,3-n]quinazolin-4-yl)-5-ethynyl-6-fluoronaphthalen-2-ol]	6.13	5.31 °C	6.35 °C	6.32
C#Cc1c(F)ccc2cc(N)cc(-c3c(F)c4nc(OC[C@@]56CCCN5C[C@H](F)C6)nc(N5C[C@H]6CC[C@@H](C5)N6)c4c4cc(C)oc34)c12 [Example 57, 4-(1-((1R,5S)-3,8-diazabicyclo[3.2.1]octan-3-yl)-5-fluoro-3-(((2R,7aS)-2-fluorotetrahydro-1H-pyrrolizin-7a(5H)-yl)methoxy)-8-methylfuro[3,2-f]quinazolin-6-yl)-5-ethynyl-6-fluoronaphthalen-2-amine]	7.00	5.76 °C	8.57 °C	6.78
C#Cc1c(F)ccc2cc(O)cc(-c3cc4nc(OCC5(CN6CCOCC6)CC5)nc(N5C[C@H]6CC[C@@H](C5)N6)c4n4ccnc34)c12 [Example 7, 4-(1-((1 R,5S)-3,8-diazabicyclo[3.2.1]octan-3-yl)-3-((1-(morpholinomethyl)cyclopropyl)methoxy)imidazo[1′,2′:1,6]pyrido[3,2-d]pyrimidin-6-yl)-5-ethynyl-6-fluoronaphthalen-2-ol]	6.96	3.24 °C	8.57 °C	6.57
CCc1c(F)ccc2cc(O)cc(-c3c(F)c4nc(OC[C@@]56CCCN5C/C(=C\F)C6)nc(N5C[C@H]6CC[C@@H](C5)N6)c4c4cn(C)nc34)c12 [Example 85, 4-(9-((1R,5S)-3,8-diazabicyclo[3.2.1]octan-3-yl)-5-fluoro-7-(((S,Z)-2-(fluoromethylene)tetrahydro-1H-pyrrolizin-7a(5H)-yl)methoxy)-2-methyl-2H-pyrazolo[4,3-f]quinazolin-4-yl)-5-ethyl-6-fluoronaphthalen-2-ol]	7.96	12.43 °C	15.24 °C	8.15
C#Cc1c(F)ccc2cc(O)cc(-c3cc4nc(OC[C@@]56CCCN5C/C(=C\F)C6)nc(N5C[C@H]6CC[C@@H](C5)N6)c4n4ccnc34)c12 [Example 29, 4-(1-((1R,5S)-3,8-diazabicyclo[3.2.1]octan-3-yl)-3-(((S,Z)-2-(fluoromethylene)tetrahydro-1H-pyrrolizin-7a(5H)-yl)methoxy)imidazo[1′,2′:1,6]pyrido[3,2-d]pyrimidin-6-yl)-5-ethynyl-6-fluoronaphthalen-2-ol]	7.72	6.82 °C	12.01 °C	7.82
C#Cc1c(F)ccc2cc(O)cc(-c3c(F)c4nc(OC[C@@]56CCCN5C[C@H](F)C6)nc(N5CC6CCC(C5)N6)c4c4cc(C)oc34)c12 [Example 44, 4-(1-((1R,5S)-3,8-diazabicyclo[3.2.1]octan-3-yl)-5-fluoro-3-(((2R,7aS)-2-fluorotetrahydro-1H-pyrrolizin-7a(5H)-yl)methoxy)-8-methylfuro[3,2-n]quinazolin-6-yl)-5-ethynyl-6-fluoronaphthalen-2-ol]	8.15	9.89 °C	14.33 °C	7.92
C#Cc1c(F)ccc2cc(O)cc(-c3cc4nc(OCC5(CN6CCC7(CC6)CC7(F)F)CC5)nc(N5C[C@H]6CC[C@@H](C5)N6)c4c4cn(C)nc34)c12 [Example 73, 4-(9-((1R,5S)-3,8-diazabicyclo[3.2.1]octan-3-yl)-7-((1-((1,1-difluoro-6-azaspiro[2.5]octan-6-yl)methyl)cyclopropyl)methoxy)-2-methyl-2H-pyrazolo[4,3-f]quinazolin-4-yl)-5-ethynyl-6-fluoronaphthalen-2-ol]	7.43	5.60 °C	11.97 °C	7.31
C#Cc1c(F)ccc2cc(O)cc(-c3cc4nc(OC[C@@]56CCCN5CC(=C(F)F)C6)nc(N5C[C@H]6CC[C@@H](C5)N6)c4n4ccnc34)c12 [Example 37, 4-(1-((1R,5S)-3,8-diazabicyclo[3.2.1]octan-3-yl)-3-(((S)-2-(difluoromethylene)tetrahydro-1H-pyrrolizin-7a(5H)-yl)methoxy)imidazo[1′,2′:1,6]pyrido[3,2-d]pyrimidin-6-yl)-5-ethynyl-6-fluoronaphthalen-2-ol]	7.54	5.76 °C	11.53 °C	7.92
C#Cc1c(F)ccc2cc(O)cc(-c3cc4nc(OCC5(CN6CC[C@@H](F)C6)CC5)nc(N5[C@@H]6CC[C@H]5CNC6)c4n4ccnc34)c12 [Example 16, 4-(1-((1R,5S)-3,8-diazabicyclo[3.2.1]octan-8-yl)-3-((1-(((R)-3-fluoropyrrolidin-1-yl)methyl)cyclopropyl)methoxy)imidazo[1′,2′:1,6]pyrido[3,2-d]pyrimidin-6-yl)-5-ethynyl-6-fluoronaphthalen-2-ol]	7.03	4.27 °C	9.01 °C	6.75
C#Cc1c(F)ccc2cc(O)cc(-c3cc4nc(OC[C@@]56CCCN5C[C@H](F)C6)nc(N5C[C@H]6CC[C@@H](C5)N6)c4c4cc(C)oc34)c12 [Example 42, 4-(1-((1R,5S)-3,8-diazabicyclo[3.2.1]octan-3-yl)-3-(((2R,7aS)-2-fluorotetrahydro-1H-pyrrolizin-7a(5H)-yl)methoxy)-8-methylfuro[3,2-f]quinazolin-6-yl)-5-ethynyl-6-fluoronaphthalen-2-ol]	6.98	5.75 °C	10.96 °C	7.19
C#Cc1c(F)ccc2cc(O)cc(-c3cc4nc(OCC5(CN6CCO[C@H](C)C6)CC5)nc(N5C[C@H]6CC[C@@H](C5)N6)c4n4ccnc34)c12 [Example 11, 4-(1-((1R,5S)-3,8-diazabicyclo[3.2.1]octan-3-yl)-3-((1-(((R)-2-methylmorpholino)methyl)cyclopropyl)methoxy)imidazo[1′,2′:1,6]pyrido[3,2-d]pyrimidin-6-yl)-5-ethynyl-6-fluoronaphthalen-2-ol]	6.85	2.49 °C	9.74 °C	6.76
Cc1cc2c(o1)c(-c1cc(O)cc3ccccc13)cc1nc(OC[C@@]34CCCN3C[C@H](F)C4)nc(N3C[C@H]4CC[C@@H](C3)N4)c12 [Example 41, 4-(1-((1R,5S)-3,8-diazabicyclo[3.2.1]octan-3-yl)-3-(((2R,7aS)-2-fluorotetrahydro-1H-pyrrolizin-7a(5H)-yl)methoxy)-8-methylfuro[3,2-f]quinazolin-6-yl)naphthalen-2-ol]	5.99	0.87 °C	5.46 °C	6.05
C#Cc1c(F)ccc2cc(N)cc(-c3c(F)c4nc(OC[C@@]56CCCN5C[C@H](F)C6)nc(N5C[C@H]6CC[C@@H](C5)N6)c4c4cn(C)nc34)c12 [Example 81, 4-(9-((1R,5S)-3,8-diazabicyclo[3.2.1]octan-3-yl)-5-fluoro-7-(((2R,7aS)-2-fluorotetrahydro-1H-pyrrolizin-7a(5H)-yl)methoxy)-2-methyl-2H-pyrazolo[4,3-n]quinazolin-4-yl)-5-ethynyl-6-fluoronaphthalen-2-amine]	6.55	6.66 °C	10.04 °C	7.09
